SMILES strings stand for the structures.

The term IC50 denotes the concentration that inhibits the measured activity by half.

The target of assay [1] is T1, NLRP3 inflammasome (Homo sapiens, UniProt Q96P20). Briefly: NLRP3 inflammasome activation assay in PBMCs, IL-1β release (ELISA / HTRF). The arrangement: were freshly isolated from human peripheral blood from healthy donors; StemCells Technologies; host or cells: primary human PBMCs, LPS-primed, nigericin-stimulated. The note with it: LPS primed. The assay is classed as cell-based. On the procedure: Some of the following assays were used to determine the inhibitory activity of the compounds on the NLRP3 inflammasome using a common inflammasome activation stimuli—nigericin.
Human peripheral blood mononuclear cells (PBMCs), consisting of lymphocytes (T, B and NK cells), monocytes and dendritic cells, were freshly isolated from human peripheral blood from healthy donors. Cells were obtained through an IRB approved donor program by iXCells Biotechnologies where all the donors were tested for bacterial and viral infections. Cells were purified from peripheral blood using ficoll gradient centrifugation.
Fresh or cryopreserved PMBCs were seeded in V-bottom 96-well plate at 0.5-1×10^5 cells per well and incubated overnight at 37° C. with 5% CO2 in RPMI 1640 medium with GlutaMAX supplement, 4.5 g/L D-glucose, 10% Fetal Bovine Serum (FBS), […] Sodium Pyruvate, 1% Penicillin/Streptomycin, 10 mM HEPES and 0.05 mM of β-mercaptoethanol. Freshly isolated or cryopreserved KCs cells were seeded in flat-bottom 96-well plates at 0.6-1.5×10^5 cells/well and incubated overnight at 37° C. 5% CO2 in RPMI 1640 Medium with GlutaMAX supplement, FBS, 1% Penicillin/Streptomycin and 10 mM HEPES. The following day, the cells were primed with 100 ng/mL of lipopolysaccharides (LPS; Sigma Aldrich) in FBS-free RPMI 1640 for 3 h. After the priming step, the media was removed and PBMCs were pre-incubated with serial concentrations of test compounds (0.00017-10 uM) or vehicle (DMSO) for 30 min in FBS-free media prior to addition of the NLRP3 activator. Cells were then stimulated with 10 uM Nigericin (Sigma Aldrich; InvivoGen) for 1.5 h. Plates were centrifuged at 1,500 rpm for 3 minutes to pellet cells and supernatant was transferred into new plates for subsequent experiments.
For ELISA assays cells were seeded into 96-well plates. Post study, supernatants were removed and the levels of mature IL-1β, IL18 and TNFα (Quantikine ELISA, R&D systems) were measured in cell conditioned media by ELISA according to manufacturer's instructions.
Human frozen PBMCs were purchased from StemCells Technologies. Cells were rapidly thawed in 37° C. water bath and resuspended in fresh assay media consisting of RPMI 1640 Medium containing 1% sodium pyruvate, 10 mM HEPES, 2.5 g/L glucose and 55 μM 2-Mercaptoethanol. Cell density was adjusted to 8.1×10^5 cells/mL. Cells were primed by adding lipopolysaccharide (Invivogen Ultrapure lipopolysaccharide from E. coli, tlrl-3pelps) at a final concentration of 100 ng/mL in cell suspension. 37 μL of cell suspension with LPS was seeded per well of a 384 well plate and incubated for 3 hours at 37° C. and 5% CO2. After priming, PBMCs were preincubated with serially diluted test compounds with starting concentration of 40 μM followed by 2-fold dilution for a 20-point curve or vehicle (DMSO) for 30 min in assay media at 37° C. and 5% CO2. Cells were then stimulated with 10 μM nigericin (Invivogen, tlrl-nig-5) for 90 min at 37° C. and 5% CO2 to activate NLRP3 dependent inflammasome pathway and IL-1β release in cell culture supernatant. Cells were centrifuged at 1200 RPM for 1 min and 40 μL of supernatant was transferred into fresh plates and stored at −80° C. until IL-1β analysis.
16 μL of supernatant was added to white 384 well HTRF plates, followed by addition of 4 μL of HTRF cocktail in each well. Plates were quickly centrifuged, sealed and incubated overnight at room temperature. Next day, HTRF signal was read on a Pherastar and ratio of 665/620 was calculated based on manufacturer's protocol to obtain concentration of IL-1β in cell culture supernatant.
For orientation: An ELISA detects its analyte on a solid surface through an enzyme-linked reagent.

The target in assay [2] is T1, NLRP3 inflammasome. In words: THP-1 ASC-GFP speck assay. The arrangement: host or cells: THP-1 ASC-GFP cells, PMA-differentiated, LPS-primed, nigericin-stimulated. The note with it: THP-1 ASC-GFP cells, PMA differentiated, LPS primed, 10 μM nigericin; read-out: THP1 ASC Speck IC50. The assay is classed as cell-based. On the procedure:
THP-1 ASC-GFP cell line was purchased from Invivogen, San Diego, for inflammasome activation assay. THP-1 ASC-GFP cells stably express a 37.6 kDa ASC::GFP fusion protein that enables monitoring of spec formation by microscopy after activation of NLRP3 dependent inflammasome pathway. Cells were maintained at a density of 600,000 cells/mL in growth media consisting of RPMI 1640, 2 mM L-glutamine, 25 mM HEPES and 10% heat inactivated fetal bovine serum at 37° C. and 5% CO2. Cells were passaged every 3-4 days and used for assays for up to 20 passages.
THP-1 ASC-GFP cells were collected by centrifuging cells at 800 RPM for 5 minutes. Cell culture supernatant was removed and cells were re-suspended in fresh media at density of 1×10^6 cells/mL in assay media consisting of RPMI 1640, 2 mM L-glutamine, 25 mM HEPES and 10% heat inactivated fetal bovine serum. Phorbol 12-myristate 13-acetate (PMA) (Invivogen, tlrl-pma) was added to the cell suspension at a final concentration of 500 ng/ml and mixed thoroughly. 40,000 cells were added per well of a 384 well plate and differentiated into macrophages overnight at 37° C. and 5% CO2. Cells were primed with 1 μg/mL of lipopolysaccharide (Invivogen Ultrapure lipopolysaccharide from E. coli, tlrl-3pelps) in assay media for 3 hours at 37° C. and 5% CO2. After priming, media was removed and THP-1 ASC-GFP cells were preincubated with serially diluted test compounds with starting concentration of 40 μM followed by 2-fold dilution for a 20-point curve or vehicle (DMSO) for 30 min in assay media at 37° C. and 5% CO2. Cells were then stimulated with 10 μM nigericin (Invivogen, tlrl-nig-5) for 90 min at 37° C. and 5% CO2 to activate NLRP3 dependent inflammasome pathway and spec formation. After stimulation, cells were fixed with 4.8% paraformaldehyde (Electron Microscopy Sciences #15710-S) and incubated at room temperature for 15 min. Cells were then washed 3-times with 100 μL of phosphate buffered saline and permeabilized in the presence of premeablization/block buffer for 20 min at room temperature. Cells were then washed 3-times with 100 μL phosphate buffered saline and incubated for 1 hr at room temperature in the presence of hoechst. After staining with Hoechst, cells were washed 3-times with 100 μL phosphate buffered saline and imaged for ASC spec formation.
THP-1 ASC-GFP cells were imaged in 488 and Hoechst channels. Hoechst channel was used for cell count and 488 channel was used to identify number of GFP ASC specks in imaged fields. Percentage of cells with a spec was calculated by dividing the number of GFP positive spots by total number of cells.

Setting [3] is: 10 μM nigericin, read-out: PBMC IL-1β IC50.
Setting [4] is: 10 uM nigericin, read-out: PBMC IL-1 β IC50.

T1 sequence (Q96P20 whole entry): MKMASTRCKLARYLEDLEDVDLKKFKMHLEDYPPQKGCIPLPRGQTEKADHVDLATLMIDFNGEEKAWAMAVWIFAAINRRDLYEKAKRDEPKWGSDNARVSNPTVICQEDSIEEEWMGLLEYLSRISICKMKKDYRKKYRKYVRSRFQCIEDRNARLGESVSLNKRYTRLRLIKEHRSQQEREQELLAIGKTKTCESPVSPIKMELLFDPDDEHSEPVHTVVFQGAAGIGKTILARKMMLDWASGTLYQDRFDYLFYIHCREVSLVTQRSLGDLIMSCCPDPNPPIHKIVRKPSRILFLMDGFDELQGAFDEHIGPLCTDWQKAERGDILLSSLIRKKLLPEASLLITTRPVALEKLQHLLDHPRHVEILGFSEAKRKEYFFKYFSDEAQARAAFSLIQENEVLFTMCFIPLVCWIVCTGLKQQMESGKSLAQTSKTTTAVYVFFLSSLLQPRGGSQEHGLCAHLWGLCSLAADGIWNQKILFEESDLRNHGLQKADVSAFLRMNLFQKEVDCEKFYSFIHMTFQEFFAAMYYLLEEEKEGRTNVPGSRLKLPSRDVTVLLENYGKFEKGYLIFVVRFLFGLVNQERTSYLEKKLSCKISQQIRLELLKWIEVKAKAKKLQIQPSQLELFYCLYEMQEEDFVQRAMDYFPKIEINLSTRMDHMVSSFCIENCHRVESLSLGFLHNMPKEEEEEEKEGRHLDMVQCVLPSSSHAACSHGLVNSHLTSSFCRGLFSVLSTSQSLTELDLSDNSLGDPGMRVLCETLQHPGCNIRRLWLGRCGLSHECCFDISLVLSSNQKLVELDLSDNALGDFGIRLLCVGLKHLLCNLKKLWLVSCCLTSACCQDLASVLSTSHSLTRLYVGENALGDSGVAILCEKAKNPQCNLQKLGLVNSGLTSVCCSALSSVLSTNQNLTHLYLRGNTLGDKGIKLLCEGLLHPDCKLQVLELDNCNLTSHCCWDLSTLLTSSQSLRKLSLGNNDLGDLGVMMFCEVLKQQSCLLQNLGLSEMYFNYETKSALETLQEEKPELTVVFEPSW

`CC(=O)NS(=O)(=NC(=O)Nc1c2c(c(F)c3c1CCC3)CCC2)c1cnn2c1OCCC2` (single isomer, unassigned) [Example 95]: at NLRP3 inflammasome [1] (setting [3]), the IC50 came out at 2230 nM.

For the compound `COC1CN(C2COc3c(S(N)(=O)=NC(=O)Nc4c5c(c(F)c6c4CCC6)CCC5)cnn3C2)C1` (single isomer, unassigned) [Example 42], the IC50 at NLRP3 inflammasome [1] (setting [3]) is 5 nM; on NLRP3 inflammasome [2], 18 nM.

For `CC1CCOc2c(S(N)(=O)=NC(=O)Nc3c4c(cc5c3CCC5)CCC4)cnn2C1` (single isomer, unassigned) [Example 67], the IC50 on NLRP3 inflammasome [1] (setting [3]) amounted to 220 nM; on NLRP3 inflammasome [2] it was 1400 nM.

For the compound `COc1cc(C(C)C)c(NC(=O)N=S(N)(=O)c2cnn3c2OC[C@@H](N2CC(OC)C2)C3)c(C(C)C)n1` (single isomer, unassigned) [Example 49], the IC50 at NLRP3 inflammasome [1] (setting [3]) came to 490 nM; at NLRP3 inflammasome [2] it was 400 nM.

On to `CC1CCOc2c(S(N)(=O)=NC(=O)Nc3c4c(cc5c3CCC5)CCC4)cnn2C1` (single isomer, unassigned) [Example 66], for which the IC50 on NLRP3 inflammasome [1] (setting [3]) and at NLRP3 inflammasome [2] was > 20000 nM throughout.

As for `NC1COc2c(S(N)(=O)=NC(=O)Nc3c4c(cc5c3CCC5)CCC4)cnn2C1` (single isomer, unassigned) [Example 58], the IC50 on NLRP3 inflammasome [1] (setting [3]) is > 10000 nM; on NLRP3 inflammasome [2], 5500 nM.

As for `CC1CCOc2c(S(N)(=O)=NC(=O)Nc3c4c(cc5c3CCC5)CCC4)cnn2C1` (single isomer, unassigned) [Example 64], the IC50 on NLRP3 inflammasome [1] (setting [3]) and on NLRP3 inflammasome [2] was > 20000 nM throughout.

With `COc1cc(C(C)C)c(NC(=O)N=S(N)(=O)c2cnn3c2OCC(OC)C3)c(C(C)C)n1` (single isomer, unassigned) [Example 52], the IC50 is 15100 nM on NLRP3 inflammasome [1] (setting [3]) and > 20000 nM on NLRP3 inflammasome [2].

Consider `CN(C)[C@@H]1COc2c([S@@](N)(=O)=NC(=O)Nc3c4c(c(F)c5c3CCC5)CCC4)cnn2C1` (single isomer, unassigned) [Example 45], for which the IC50 on NLRP3 inflammasome [1] (setting [3]) came to 0.7 nM; at NLRP3 inflammasome [2], 11 nM.

In the case of `CNC1COc2c(S(N)(=O)=NC(=O)Nc3c(C(C)C)cc(OC)nc3C(C)C)cnn2C1` (single isomer, unassigned) [Example 51], the IC50 is > 10000 nM on NLRP3 inflammasome [1] (setting [3]) and 17000 nM on NLRP3 inflammasome [2].

For the compound `COCCNC1COc2c(S(N)(=O)=NC(=O)Nc3c4c(cc5c3CCC5)CCC4)cnn2C1` (single isomer, unassigned) [Example 54], the IC50 on NLRP3 inflammasome [1] (setting [3]) came to 330 nM; at NLRP3 inflammasome [2], 360 nM.

With `COc1cc(C(C)C)c(NC(=O)N=S(N)(=O)c2cnn3c2OCC(N2CC(OC)C2)C3)c(C(C)C)n1` (single isomer, unassigned) [Example 48], on NLRP3 inflammasome [1] (setting [3]), the IC50 is > 10000 nM.

Turning to `COc1cc(C(C)C)c(NC(=O)N=S(N)(=O)c2cnn3c2OCC(OC)C3)c(C(C)C)n1` (single isomer, unassigned) [Example 53], the results for the half-inhibitory concentration (IC50) at NLRP3 inflammasome [1] (setting [3]) and at NLRP3 inflammasome [2] were 470 nM and 1200 nM, respectively.

`N#CNS(=O)(=NC(=O)Nc1c2c(cc3c1CCC3)CCC2)c1cnn2c1OCCC2` (single isomer, unassigned) [Example 68]: the IC50 worked out at 380 nM at NLRP3 inflammasome [1] (setting [3]) and 330 nM on NLRP3 inflammasome [2].

Regarding `CNCCO[C@@H]1COc2c(S(N)(=O)=NC(=O)Nc3c4c(cc5c3CCC5)CCC4)cnn2C1` (single isomer, unassigned) [Example 57], the 50% inhibitory concentration (IC50) at NLRP3 inflammasome [1] (setting [3]) was determined as 1670 nM.

In the case of `Cn1ccc(S(=O)(=NC(=O)Nc2c3c(cc4c2CCC4)CCC3)NCc2ccccc2)n1` (centres unmarked) [drawing 659], at NLRP3 inflammasome [1] (setting [4]), the IC50 was > 10000 nM.

Regarding `COC1COc2c(S(=O)(=NC(=O)Nc3c4c(cc5c3CCC5)CCC4)NC(C)=O)cnn2C1` (single isomer, unassigned) [Example 116], at NLRP3 inflammasome [2], the IC50 was found to be 2100 nM.

On to `CC1(C)Cn2ncc(S(N)(=O)=NC(=O)Nc3c4c(cc5c3CCC5)CCC4)c2O1` (single isomer, unassigned) [Example 139], for which the IC50 at NLRP3 inflammasome [2] is 4.3 nM.

As to `COc1cc(C(C)C)c(NC(=O)N=S(N)(=O)c2cnn3c2OCC(C)(C)C3)c(C(C)C)n1` (single isomer, unassigned) [Example 76], the IC50 on NLRP3 inflammasome [2] came out at 2600 nM.

Turning to `CC(C)c1nn(CC2CC2)c(C(C)C)c1NC(=O)N=S(N)(=O)c1cnn2c1OCCC2` (single isomer, unassigned) [Example 113], the IC50 on NLRP3 inflammasome [2] was > 20000 nM.

For the compound `CN[C@@H]1COc2c(S(=N)(=O)NC(=O)Nc3c4c(cc5c3CCC5)CCC4)cnn2C1` (some centres unmarked) [drawing 673], the IC50 at NLRP3 inflammasome [1] (setting [4]) lay in the range of 100 to 1000 nM.

On to `Cn1ccc(S(=O)(=NC(=O)Nc2c3c(cc4c2CCC4)CCC3)NCc2ccccc2)n1` (centres unmarked) [Example 11, N′-benzyl-N-((1,2,3,5,6,7-hexahydro-s-indacen-4-yl)carbamoyl)-1-methyl-1H-pyrazole-3-sulfonimidamide], for which, on NLRP3 inflammasome [1] (setting [3]), the IC50 was > 10000 nM.

With `NS(=O)(=NC(=O)Nc1c2c(cc3c1CCC3)CCC2)c1cnn2c1COCCC2` (single isomer, unassigned) [Example 62], the IC50 at NLRP3 inflammasome [2] came out at 920 nM.

In the case of `NS(=O)(=NC(=O)Nc1c2c(cc3c1CCC3)CCC2)c1cnn2c1CCCC2` (racemic) [Example 60, N′-((1,2,3,5,6,7-hexahydro-s-indacen-4-yl)carbamoyl)-4,5,6,7-tetrahydropyrazolo[1,5-a]pyridine-3-sulfonimidamide], the half-maximal inhibitory concentration (IC50) at NLRP3 inflammasome [1] (setting [3]) stood at 3640 nM.

As for `CNC1CCOc2c(S(N)(=O)=NC(=O)Nc3c4c(cc5c3CCC5)CCC4)cnn2C1` (single isomer, unassigned) [Example 109], the IC50 on NLRP3 inflammasome [2] was determined as 5700 nM.

For the compound `CC1(C)COc2c(S(N)(=O)=NC(=O)Nc3c4c(cc5c3CC(F)C5)CCC4)cnn2C1` (single isomer, unassigned) [Example 154], at NLRP3 inflammasome [2], the IC50 came out at 1800 nM.

Source of the values: patent US12234245B2, “Sulfonimidamide compounds as inhibitors of interleukin-1 activity” (Genentech, Inc., priority 2018, dated 2025).
